From ChEMBL document CHEMBL1201862, “PubChem BioAssay data set” (2004) come the findings set out here.

Common to all, as to assay: NCI anticancer screen, dose series, 48 h
For test [1], the system named is CAKI-1.
Test [2] deals with HCT-15.
The subject of test [3] is HL-60.
Test [4] has as its system KM12.
For test [5], the system named is LOX IMVI.
Test [6] deals with MOLT-4.
Test [7] concerns NCI-H460.
Test [8] concerns OVCAR-3.
For test [9], the system named is OVCAR-5.
The subject of test [10] is OVCAR-8.
For test [11], the system named is SF-268.
The subject of test [12] is SF-295.
Test [13] has as its system SK-MEL-2.
Test [14] relates to SK-MEL-5.
Test [15] has as its system SNB-19.
Test [16] relates to UACC-62.
Test [17] relates to MDA-MB-231.
Test [18] concerns MDA-MB-435.
Test [19] deals with NCI/ADR-RES.
Test [20] concerns DU-145.

SMILES strings stand for the structures.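 Cultured in 96-well plates, cells were exposed to test compound for 48 hours across five concentrations. At the GI50, growth is halved.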 Activity calls are given as the source filed them. No stated cut-off is given here; in the data, active = GI50 up to about 1.1 µM and inactive = higher. Where only a bound is given, the exact number is not on record here.

With `c1ccc(C2SCc3nc4ccccc4n32)cc1` (stereo unspecified), the GI50 in [1] was 42.7 µM (inactive); in [2], 44.4 µM; in [3], 15.6 µM (inactive); in test [4] it was 32.4 µM (inactive); in test [5], 39.9 µM (inactive); in test [6], 28.2 µM (inactive). For the same compound, the GI50 in test [7] is 40.8 µM (inactive); in [8], 19.1 µM (inactive); in test [9], > 100 µM (inactive); in test [10], 65 µM (inactive); in test [11], 37.9 µM (inactive); in test [12], 23 µM (inactive). In addition, the GI50 in test [13] was 29.6 µM (inactive); in test [14] it was 18.6 µM (inactive); in test [15] it was 32.2 µM (inactive); in test [16], 37.2 µM (inactive).
Consider `O=C1C=C(N2CCCC2)C=C(N2CCCC2)C1`, for which the GI50 in [1] is > 100 µM (inactive); in test [2], over 100 µM; in test [3], > 100 µM (inactive); in test [4] it was > 100 µM (inactive); in [5], > 100 µM (inactive); in test [6], > 100 µM (inactive). Besides, the GI50 was > 100 µM (inactive) in [7]; 75.5 µM (inactive) in test [8]; > 100 µM (inactive) in [9]; > 100 µM (inactive) in test [10]; > 100 µM (inactive) in test [11]; > 100 µM (inactive) in test [12]. Moreover, the GI50 in [13], in [14], in [15] and in [16] was > 100 µM (inactive) throughout.
As to `N#Cc1c(-c2ccccc2)c(/N=N/c2ccc(Cl)cc2)c(=O)n2c1[nH]c1ccccc12`, the GI50 is 24.3 µM (inactive) in [1]; over 100 µM in test [2]; 44.2 µM (inactive) in test [4]; > 100 µM (inactive) in test [5]; > 100 µM (inactive) in test [17]; > 100 µM (inactive) in test [18]. The GI50 in [7] was 35.5 µM (inactive); in test [19], 92.9 µM (inactive); in [8] it was > 100 µM (inactive); in test [9], > 100 µM (inactive); in [10], 90.2 µM (inactive); in test [11], 79.1 µM (inactive). Also, the GI50 in [12] is 76.7 µM (inactive); in [13], > 100 µM (inactive); in test [14], 55.8 µM (inactive); in test [15] it was > 100 µM (inactive).
`COc1ccccc1C1c2cc3c(cc2OC(N2CCCC2)C1C)OCO3` (stereo unspecified): the GI50 was 9.84 µM (inactive) in test [1]; 15.2 µM (inactive) in test [20]; 17.2 µM in test [2]; 14.2 µM (inactive) in test [3]; 19.3 µM (inactive) in test [4]; 16.9 µM (inactive) in test [5]. The GI50 was 12.4 µM (inactive) in test [18]; 3.16 µM (inactive) in [6]; 16.4 µM (inactive) in test [7]; 18.5 µM (inactive) in test [19]; 15.7 µM (inactive) in test [8]; 19.2 µM (inactive) in [9]. In addition, the GI50 in test [10] is 21.2 µM (inactive); in [11], 13.6 µM (inactive); in test [12], 16.7 µM (inactive); in test [13] it was 14.8 µM (inactive); in test [14], 14.5 µM (inactive); in [15], 17.9 µM (inactive). Also, the GI50 in test [16] was 16.2 µM (inactive).
Consider `Nc1ccc2ncc(Nc3ccc(F)cc3)nc2c1`, for which the GI50 is > 100 µM (inactive) in test [1]; over 100 µM in test [2]; > 100 µM (inactive) in test [3]; 46.3 µM (inactive) in test [4]; > 100 µM (inactive) in test [5]; 27.7 µM (inactive) in test [6]. The GI50 in test [7] is > 100 µM (inactive); in test [8], > 100 µM (inactive); in [9], 84.5 µM (inactive); in [10], > 100 µM (inactive); in test [11], > 100 µM (inactive); in test [12], > 100 µM (inactive). For the same compound, the values for the GI50 in test [13], in test [14] and in test [15] were > 10 µM (inactive), 34.9 µM (inactive) and > 100 µM (inactive), respectively.
Consider `Clc1ccc(-c2c(C3=NCCN3)nnn2-c2ccccc2)cc1`, for which the GI50 in test [1] is > 100 µM (inactive); in test [2] it was over 100 µM; in test [3], > 100 µM (inactive); in [4], > 100 µM (inactive); in test [5], > 100 µM (inactive); in test [6], 80.2 µM (inactive). The GI50 in test [7], in test [8], in test [9], in test [10], in test [11] and in [12] was > 100 µM (inactive) each time. Besides, the GI50 in [13] was 51.2 µM (inactive); in test [14] it was 97.1 µM (inactive); in test [15], > 100 µM (inactive); in test [16], > 100 µM (inactive).
With `CC#COS(=O)(=O)c1ccc(C)cc1`, the GI50 in test [1] is > 100 µM (inactive); in test [2], 79.8 µM; in test [3], 26.4 µM (inactive); in test [4], 59.2 µM (inactive); in test [5] it was 52 µM (inactive); in [6], 41.1 µM (inactive). Besides, the GI50 was 70.6 µM (inactive) in test [7]; 60.5 µM (inactive) in [8]; > 100 µM (inactive) in test [9]; > 100 µM (inactive) in [10]; 93.3 µM (inactive) in [11]; > 100 µM (inactive) in test [12]. Also, the GI50 in [13] is > 100 µM (inactive); in [14], 37.4 µM (inactive); in [15] it was > 100 µM (inactive); in test [16] it was 32.4 µM (inactive).
As to `Cc1ccc(S(=O)(=O)C2=c3nc4ccccc4cc3=C3C(=O)c4ccccc4C(=O)C32)cc1` (stereo unspecified), the GI50 is > 100 µM (inactive) in test [1]; over 100 µM in test [2]; > 100 µM (inactive) in [3]; > 100 µM (inactive) in test [4]; > 100 µM (inactive) in test [5]; > 100 µM (inactive) in test [6]. The GI50 in test [7], in [8], in test [9], in test [10], in test [11] and in [13] was > 100 µM (inactive) each time. Further, the GI50 in test [14] was 63.2 µM (inactive); in test [15], > 100 µM (inactive); in [16] it was > 100 µM (inactive).
For `c1ccc(/N=C(/Nc2ccccc2)N2CCCC2)cc1`, the GI50 in test [1] is > 100 µM (inactive); in test [20] it was > 100 µM (inactive); in test [2], over 100 µM; in test [3], > 100 µM (inactive); in test [4], > 100 µM (inactive); in [5], > 100 µM (inactive). Besides, the GI50 in [18], in test [6], in [7], in test [19], in test [8] and in test [9] was > 100 µM (inactive) each time. Further, the GI50 in test [10], in test [11], in test [12], in test [13], in [14] and in test [15] was > 100 µM (inactive) in each case. For the same compound, in [16], the GI50 was > 100 µM (inactive).
For the compound `COc1ccc2cc(NC(=O)Nn3cnnc3)ccc2c1`, the GI50 in [1] is > 100 µM (inactive); in test [20] it was > 100 µM (inactive); in [2], over 100 µM; in test [3], > 100 µM (inactive); in test [4], 92.5 µM (inactive); in test [5], > 100 µM (inactive). Moreover, the GI50 in test [17], in test [18], in [6], in test [7], in test [8] and in [9] was > 100 µM (inactive) throughout. The GI50 in test [10], in test [11], in test [12], in test [13], in [14] and in test [15] was > 100 µM (inactive) in each case. The GI50 in [16] was > 100 µM (inactive).
Take `CN(NC(=O)c1cccs1)C1=NCCN1`: the GI50 in [2] is over 100 µM; in test [3], > 100 µM (inactive); in [4], > 100 µM (inactive); in test [5] it was > 100 µM (inactive); in test [17] it was > 100 µM (inactive); in test [18], > 100 µM (inactive). The GI50 in test [6], in [7], in [19], in test [8], in test [9] and in test [10] was > 100 µM (inactive) throughout. Further, the GI50 in test [11], in [12], in test [13], in [14], in [15] and in [16] was > 100 µM (inactive) in each case.
With `Nc1nc(N)c(CCCCc2ccccc2)c(/C=C/c2ccc([N+](=O)[O-])cc2)n1`, the GI50 is 3.92 µM (inactive) in [1]; 1.25 µM in test [2]; 1.35 µM (inactive) in test [3]; 3.03 µM (inactive) in test [4]; 1.85 µM (inactive) in [5]; 1.14 µM (inactive) in [6]. The GI50 was 0.873 µM (active) in test [7]; 2.43 µM (inactive) in test [8]; 3.87 µM (inactive) in test [9]; 2.59 µM (inactive) in [10]; 3.7 µM (inactive) in [11]; 1.42 µM (inactive) in [12]. Besides, the GI50 in test [13] was 2.79 µM (inactive); in [14] it was 2.18 µM (inactive); in test [15], 3.8 µM (inactive); in test [16] it was 2.07 µM (inactive).
